Values of other authors as cited in US4818687A (priority 1985, dated 1989).

Tested on: human liver cancer

COc1cc2c(c3oc(=O)c4c(c13)CCC4=O)[C@@H]1C=CO[C@@H]1O2 [aflatoxin B1]
association with human liver cancer: statistically associated with increased incidence of human liver cancer
